Reference: PubChem BioAssay AID248 (DTP/NCI, 2004)
“And” between values parts separate entries of the source, which are not always exact repeats. Identical values can stand only once. Toxic doses and inconclusive results are not listed. Rule as the data show it: active = T/C of 150% or more; inactive = T/C below 125%.

Test system: L1210 leukemia ip in BDF1 mice, survival T/C
Assay: NCI In Vivo Anticancer Drug Screen. Data for tumor model L1210 Leukemia (intraperitoneal) in B6D2F1 (BDF1) mice
Settings: endpoint: mean survival time, higher = longer survival
How it was run: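 Transplanted-tumor mice were given test agent; controls received vehicle only. Survival readings from the two groups were divided (treated over control).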

[1] = dose: 100.0 mg/kg/injection, schedule: Q04DX003 (ip), vehicle: Klucel (hydroxypropylcellulose) (HPC)
[2] = dose: 100.0 mg/kg/injection, schedule: Q04DX003 (ip), vehicle: saline
[3] = dose: 200.0 mg/kg/injection, schedule: Q04DX003 (ip), vehicle: saline
[4] = dose: 400.0 mg/kg/injection, schedule: Q04DX003 (ip), vehicle: saline
[5] = dose: 100.0 mg/kg/injection, schedule: Q04DX003 (ip), vehicle: saline with Tween-80
[6] = dose: 200.0 mg/kg/injection, schedule: Q04DX003 (ip), vehicle: saline with Tween-80
[7] = dose: 400.0 mg/kg/injection, schedule: Q04DX003 (ip), vehicle: saline with Tween-80
[8] = dose: 50.0 mg/kg/injection, schedule: Q01DX009 (ip), vehicle: saline with Tween-80
[9] = dose: 100.0 mg/kg/injection, schedule: Q01DX009 (ip), vehicle: saline with Tween-80
[10] = dose: 200.0 mg/kg/injection, schedule: Q01DX009 (ip), vehicle: saline with Tween-80
[11] = dose: 100.0 mg/kg/injection, schedule: Q04DX002 (ip), vehicle: saline
[12] = dose: 200.0 mg/kg/injection, schedule: Q04DX002 (ip), vehicle: saline
[13] = dose: 400.0 mg/kg/injection, schedule: Q04DX002 (ip), vehicle: saline
[14] = dose: 100.0 mg/kg/injection, schedule: Q01DX001 (ip), vehicle: saline
[15] = dose: 200.0 mg/kg/injection, schedule: Q01DX001 (ip), vehicle: saline
[16] = dose: 400.0 mg/kg/injection, schedule: Q01DX001 (ip), vehicle: saline
[17] = dose: 400.0 mg/kg/injection, schedule: Q01DX009 (ip), vehicle: saline with Tween-80

Measured: T/C

O=C(NCCCCN1CC1)C(=O)Nc1ccccc1
inactive: dose: 12.5 mg/kg/injection, schedule: Q04DX003 (ip), vehicle: Klucel (hydroxypropylcellulose) (HPC) 97 % of control | dose: 25.0 mg/kg/injection, schedule: Q04DX003 (ip), vehicle: Klucel (hydroxypropylcellulose) (HPC) 93 % of control | dose: 50.0 mg/kg/injection, schedule: Q04DX003 (ip), vehicle: Klucel (hydroxypropylcellulose) (HPC) 98 % of control | [1] 103 % of control

CCCCCCCCCCOP(OCCCCCCCCCC)Oc1ccccc1
inactive: [2] 102 % of control | [3] 93 % of control | [4] 102 % of control

CC(=O)C(C)C(=O)c1cc(C)c(Br)s1 (stereo not drawn)
inactive: dose: 100.0 mg/kg/injection, schedule: Q01DX001 (ip), vehicle: carboxymethylcellulose (CMC) 94 % of control | dose: 200.0 mg/kg/injection, schedule: Q01DX001 (ip), vehicle: carboxymethylcellulose (CMC) 97 % of control | dose: 400.0 mg/kg/injection, schedule: Q01DX001 (ip), vehicle: carboxymethylcellulose (CMC) 94 % of control

CCOC(=O)CNC(=O)Nc1ccccc1F
inactive: dose: 50.0 mg/kg/injection, schedule: Q01DX009 (ip), vehicle: gum acacia 93 % of control and 97 % of control | dose: 100.0 mg/kg/injection, schedule: Q01DX001 (ip), vehicle: gum acacia 101 % of control and 102 % of control | dose: 100.0 mg/kg/injection, schedule: Q04DX002 (ip), vehicle: gum acacia 96 % of control and 97 % of control | dose: 100.0 mg/kg/injection, schedule: Q04DX003 (ip), vehicle: gum acacia 94 % of control and 108 % of control | dose: 200.0 mg/kg/injection, schedule: Q01DX001 (ip), vehicle: gum acacia 100 % of control and 102 % of control | dose: 200.0 mg/kg/injection, schedule: Q04DX002 (ip), vehicle: gum acacia 93 % of control and 94 % of control | dose: 200.0 mg/kg/injection, schedule: Q04DX003 (ip), vehicle: gum acacia 94 % of control and 101 % of control | dose: 400.0 mg/kg/injection, schedule: Q01DX001 (ip), vehicle: gum acacia 95 % of control and 105 % of control | dose: 400.0 mg/kg/injection, schedule: Q01DX009 (ip), vehicle: gum acacia 90 % of control and 91 % of control | dose: 400.0 mg/kg/injection, schedule: Q04DX002 (ip), vehicle: gum acacia 96 % of control and 87 % of control | dose: 400.0 mg/kg/injection, schedule: Q04DX003 (ip), vehicle: gum acacia 95 % of control and 96 % of control

COC(=O)C(C(=O)OC)C(Br)(OC(C)=O)OC(C)=O
inactive: [5] 98 % of control | [6] 100 % of control | [7] 106 % of control

COc1ccc([N+](=O)[O-])cc1NC(=O)NCCCl
inactive: dose: 75.0 mg/kg/injection, schedule: Q01DX009 (ip), vehicle: Klucel (hydroxypropylcellulose) (HPC) 108 % of control | [1] 93 % of control | dose: 150.0 mg/kg/injection, schedule: Q01DX009 (ip), vehicle: Klucel (hydroxypropylcellulose) (HPC) 95 % of control | dose: 200.0 mg/kg/injection, schedule: Q04DX003 (ip), vehicle: Klucel (hydroxypropylcellulose) (HPC) 96 % of control | dose: 300.0 mg/kg/injection, schedule: Q01DX009 (ip), vehicle: Klucel (hydroxypropylcellulose) (HPC) 102 % of control | dose: 400.0 mg/kg/injection, schedule: Q04DX003 (ip), vehicle: Klucel (hydroxypropylcellulose) (HPC) 98 % of control

Cc1ccc2[c](c1)[Sn]([c]1ccccc1)([c]1ccccc1)[c]1cc(C)ccc1N2C
inactive: dose: 100.0 mg/kg/injection, schedule: Q01DX001 (ip), vehicle: steriod suspending solution 96 % of control | dose: 200.0 mg/kg/injection, schedule: Q01DX001 (ip), vehicle: steriod suspending solution 94 % of control | dose: 400.0 mg/kg/injection, schedule: Q01DX001 (ip), vehicle: steriod suspending solution 96 % of control

CSC1CCCCC1O (stereo not drawn)
inactive: [8] 89 % of control | [9] 92 % of control | [10] 92 % of control

NS(=O)(=O)c1ccc(Cl)cc1
inactive: dose: 50.0 mg/kg/injection, schedule: Q01DX009 (ip), vehicle: saline 95 % of control | dose: 100.0 mg/kg/injection, schedule: Q01DX009 (ip), vehicle: saline 102 % of control | dose: 100.0 mg/kg/injection, schedule: Q04DX002 (ip), vehicle: Klucel (hydroxypropylcellulose) (HPC) 103 % of control | [5] 104 % of control | dose: 200.0 mg/kg/injection, schedule: Q04DX002 (ip), vehicle: Klucel (hydroxypropylcellulose) (HPC) 103 % of control | [6] 112 % of control | dose: 400.0 mg/kg/injection, schedule: Q04DX002 (ip), vehicle: Klucel (hydroxypropylcellulose) (HPC) 103 % of control

N=C(N)c1ccccc1
inactive: dose: 100.0 mg/kg/injection, schedule: Q01DX Z (ip), vehicle: methylcellulose (MC) 94 % of control | dose: 150.0 mg/kg/injection, schedule: Q01DX Z (ip), vehicle: methylcellulose (MC) 96 % of control and 89 % of control

CCNC(=O)CS(=O)(=O)c1ccc(N)cc1
inactive: [2] 100 % of control | [3] 108 % of control | [4] 105 % of control

CCNC(=S)S.[Zn+2]
inactive: dose: 1.0 mg/kg/injection, schedule: Q01DX015 (ip), vehicle: saline 102 % of control | dose: 2.0 mg/kg/injection, schedule: Q01DX015 (ip), vehicle: saline 100 % of control | dose: 4.0 mg/kg/injection, schedule: Q01DX015 (ip), vehicle: saline 102 % of control | dose: 8.0 mg/kg/injection, schedule: Q01DX015 (ip), vehicle: saline 108 % of control | dose: 10.0 mg/kg/injection, schedule: Q01DX001 (ip), vehicle: carboxymethylcellulose (CMC) 95 % of control | dose: 20.0 mg/kg/injection, schedule: Q01DX001 (ip), vehicle: carboxymethylcellulose (CMC) 97 % of control | dose: 40.0 mg/kg/injection, schedule: Q01DX001 (ip), vehicle: carboxymethylcellulose (CMC) 95 % of control | dose: 80.0 mg/kg/injection, schedule: Q01DX001 (ip), vehicle: carboxymethylcellulose (CMC) 97 % of control

O=C1OCC/C1=C/CCCCCC/C=C1\CCOC1=O
inactive: dose: 50.0 mg/kg/injection, schedule: Q01DX009 (ip), vehicle: DMSO 92 % of control | dose: 100.0 mg/kg/injection, schedule: Q01DX009 (ip), vehicle: DMSO 90 % of control | dose: 100.0 mg/kg/injection, schedule: Q04DX003 (ip), vehicle: DMSO 102 % of control | dose: 200.0 mg/kg/injection, schedule: Q01DX009 (ip), vehicle: DMSO 91 % of control | dose: 200.0 mg/kg/injection, schedule: Q04DX003 (ip), vehicle: DMSO 101 % of control | dose: 400.0 mg/kg/injection, schedule: Q04DX003 (ip), vehicle: DMSO 94 % of control

CC(=O)Nc1ccc(/C=C(\C#N)c2ccc(C)cc2)cc1
inactive: [5] 87 % of control | [6] 90 % of control | [7] 101 % of control

COc1cc2c(cc1OC)C1(NCC2)C(=O)Nc2c(C)cc(Cl)cc21 (stereo not drawn)
inactive: dose: 25.0 mg/kg/injection, schedule: Q04DX002 (ip), vehicle: saline 103 % of control | dose: 50.0 mg/kg/injection, schedule: Q04DX002 (ip), vehicle: saline 92 % of control | [11] 95 % of control and 100 % of control | [12] 92 % of control | [13] 90 % of control

O=C1c2ccccc2C(=O)N1C/C=C/CN1C(=O)c2ccccc2C1=O
inactive: [14] 95 % of control | [2] 101 % of control | [15] 98 % of control | [3] 104 % of control | [16] 91 % of control | [4] 102 % of control

CC12CCC(Cl)(CC1)CC2=O
inactive: [11] 95 % of control | [12] 95 % of control | [13] 98 % of control

Cc1cccc([N+](=O)[O-])n1
inactive: dose: 25.0 mg/kg/injection, schedule: Q01DX009 (ip), vehicle: saline with Tween-80 94 % of control | [8] 94 % of control | [5] 89 % of control

C=CC(=O)NC12CC3CC(CC(C3)C1)C2
inactive: [14] 88 % of control | [9] 104 % of control | [15] 93 % of control | [10] 97 % of control | [16] 90 % of control | [17] 101 % of control

CCCCCCCCCCCCNNC(=O)OCCO
inactive: [14] 101 % of control | [15] 93 % of control

CC(=O)OCCC#CCCCO
inactive: [9] 90 % of control | [10] 98 % of control | [17] 97 % of control
